Like-named read-outs stand apart in the source and are kept apart here.
Legend:
[1] = biological target: T1, beta-catenin/TCF4 engagement (Homo sapiens, UniProt P35222); assay: Nano-BRET target engagement assay (B-cat-Halo & TCF4-Luc in HEK293 cells); assay type: cell-based
T1 construct: expressed in transfected cells; host or cells: HEK293
T1 sequence (P35222 1-781): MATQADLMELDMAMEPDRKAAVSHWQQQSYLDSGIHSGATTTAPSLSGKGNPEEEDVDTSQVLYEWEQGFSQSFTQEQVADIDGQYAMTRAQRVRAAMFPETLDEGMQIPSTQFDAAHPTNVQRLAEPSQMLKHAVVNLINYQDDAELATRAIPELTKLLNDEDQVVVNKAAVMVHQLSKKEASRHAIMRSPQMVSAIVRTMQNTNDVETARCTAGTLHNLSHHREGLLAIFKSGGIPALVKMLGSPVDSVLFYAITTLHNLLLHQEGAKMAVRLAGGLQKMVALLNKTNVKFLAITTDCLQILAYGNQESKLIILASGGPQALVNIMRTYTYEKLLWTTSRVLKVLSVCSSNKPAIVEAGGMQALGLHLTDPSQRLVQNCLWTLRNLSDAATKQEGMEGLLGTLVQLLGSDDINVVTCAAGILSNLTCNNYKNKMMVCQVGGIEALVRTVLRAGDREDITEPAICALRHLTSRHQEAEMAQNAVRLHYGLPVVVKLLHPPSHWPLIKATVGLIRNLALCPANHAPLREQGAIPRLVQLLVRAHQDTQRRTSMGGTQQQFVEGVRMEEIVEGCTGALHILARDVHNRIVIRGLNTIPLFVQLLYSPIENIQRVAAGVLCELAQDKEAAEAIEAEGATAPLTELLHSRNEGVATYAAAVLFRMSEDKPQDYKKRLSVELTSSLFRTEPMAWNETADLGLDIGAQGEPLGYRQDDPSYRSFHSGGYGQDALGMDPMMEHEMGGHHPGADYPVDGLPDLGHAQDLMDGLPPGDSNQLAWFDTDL

[2] = biological target: T2, full-length beta-Catenin (Uniprot ID P35222) (Homo sapiens, UniProt P35222); assay: Fluorescence polarization IC50 (beta-catenin / 5FAM-TCF4 10-53 competition); assay type: binding
T2 construct: 10 nM full-length beta-Catenin (Uniprot ID P35222)
T2 sequence (P35222 1-781): T1 sequence (P35222 1-781)

[3] = fluorescence polarization; read-out: beta-Catenin FP IC50
[4] = absolute IC50; read-out: NanoBRET Abs IC50

Structure (SMILES)	IC50 ([1]; read-out: NanoBRET Abs IC50)	IC50 [2, 3]	IC50 [1, 4]	IC50 ([1]; read-out: NanoBRET Abs IC50; absolute IC50)	IC50 ([2]; read-out: beta-Catenin FP IC50; fluorescence polarization)
CC(=O)N1CCC[C@]12CC=CCCCC1(CCCC=CCCCOC(=O)N3CC[C@@](C(=O)N[C@@H](Cc4ccsc4)C(=O)N[C@@H](Cc4csc5ccccc45)C(=O)N[C@H](CCC(N)=O)C(N)=O)(C3)NC(=O)[C@H](Cc3ccccc3)NC(=O)[C@H](Cc3ccccc3)NC(=O)[C@H](C)NC(=O)[C@H](C)NC(=O)[C@H](Cc3cccc(C(=O)O)c3)NC(=O)[C@H](CC(=O)O)NC1=O)NC(=O)[C@H](CC(C)(C)C)NC(=O)[C@H](CC(=O)O)NC2=O (stereo partly drawn) [I-2092, Ac-PL3-Asp-Npg-B5-Asp-3COOHF-Ala-Ala-Phe-Phe-PyrS2-3Thi-BztA-dGln-NH2]	4400 nM	15 nM			
CC(C)COC(=O)N1CCC[C@]12CC=CCCCC1(CCCC=CCCCOC(=O)N3CC[C@@](C(=O)N[C@@H](Cc4ccccc4Cl)C(=O)N[C@@H](Cc4csc5ccccc45)C(=O)N[C@@H](C)C(N)=O)(C3)NC(=O)[C@H](CC(C)C)NC(=O)[C@H](Cc3ccccc3)NC(=O)[C@H](C)NC(=O)[C@H](C)NC(=O)[C@H](Cc3cccc(C(=O)O)c3)NC(=O)[C@H](CC(=O)O)NC1=O)NC(=O)[C@H](CC(C)(C)C)NC(=O)[C@H](CC(=O)O)NC2=O (stereo partly drawn) [I-2305, CO2iBu-PL3-Asp-Npg-B5-Asp-3COOHF-Ala-Ala-Phe-Leu-PyrS2-2C1F-BztA-Ala-NH2]		65 nM	> 20000 nM		
CC(=O)N1CCC[C@]12CC=CCCCC1(CCCC=CCCCOC(=O)N3CC[C@@](C(=O)N[C@@H](Cc4ccsc4)C(=O)N[C@@H](Cc4csc5ccccc45)C(=O)N[C@@H](CC(N)=O)C(=O)N[C@@H](CC(C)C)C(=O)N[C@@H](CC(C)C)C(=O)N[C@@H](CC(C)C)C(=O)N[C@@H](CC(C)C)C(=O)N[C@@H](CC(C)C)C(N)=O)(C3)NC(=O)[C@H](CC(C)C)NC(=O)[C@H](Cc3ccccc3)NC(=O)[C@H](C)NC(=O)[C@H](C)NC(=O)[C@H](Cc3cccc(C(=O)O)c3)NC(=O)[C@H](CC(=O)O)NC1=O)NC(=O)[C@H](CC(C)(C)C)NC(=O)[C@H](CC(=O)O)NC2=O (stereo partly drawn) [I-2279, Ac-PL3-Asp-Npg-B5-Asp-3COOHF-Ala-Ala-Phe-Leu-PyrS2-3Thi-BztA-Asn-Leu-Leu-Leu-Leu-Leu-NH2]				> 20000 nM	7230 nM
CC(=O)N1CCC[C@]12CC=CCCCC1(CCCC=CCCCOC(=O)N3CC[C@@](C(=O)N[C@@H](Cc4ccccc4C(F)(F)F)C(=O)N[C@@H](Cc4csc5c(F)cccc45)C(=O)N[C@@H](C)C(N)=O)(C3)NC(=O)[C@H](CC(C)C)NC(=O)[C@H](Cc3ccccc3)NC(=O)[C@H](C)NC(=O)[C@H](CCC(N)=O)NC(=O)[C@H](Cc3cccc(C(=O)O)c3)NC(=O)[C@H](CC(=O)O)NC1=O)NC(=O)[C@H](CC(C)(C)C)NC(=O)[C@H](CC(=O)O)NC2=O (stereo partly drawn) [I-2489, Ac-PL3-Asp-Npg-B5-Asp-3COOHF-Gln-Ala-Phe-Leu-PyrS2-2F3MeF-7FBztA-Ala-NH2]		29 nM	7400 nM		
CCCC[C@@H]1NC(=O)[C@H](Cc2ccccc2)NC(=O)[C@H](C)NC(=O)C(C)(C)NC(=O)[C@H](Cc2cccc(C(=O)O)c2)NC(=O)[C@H](CC(=O)O)NC(=O)C2(CCCC=CCCCOC(=O)N3CC[C@@](C(=O)N[C@@H](Cc4ccsc4)C(=O)N[C@@H](Cc4csc5ccccc45)C(=O)N[C@@H](CCC(=O)N4CCN(C(C)=O)CC4)C(N)=O)(C3)NC1=O)CCCC=CC[C@]1(CCCN1C(C)=O)C(=O)N[C@@H](CC(=O)O)C(=O)N[C@@H](CC(C)(C)C)C(=O)N2 (stereo partly drawn) [I-2556, Ac-PL3-Asp-Npg-B5-Asp-3COOHF-Aib-Ala-Phe-nLeu-PyrS2-3Thi-BztA-[AcPpz]GlnR-NH2]		6 nM	7000 nM		
CCCC[C@@H]1NC(=O)[C@H](Cc2ccccc2)NC(=O)[C@H](C)NC(=O)C(C)(C)NC(=O)[C@H](Cc2cccc(C(=O)O)c2)NC(=O)[C@H](CC(=O)O)NC(=O)C2(CCCC=CCCCOC(=O)N3CC[C@@](C(=O)N[C@@H](Cc4ccsc4)C(=O)N[C@@H](Cc4csc5ccccc45)C(=O)N[C@@H](CCC(=O)NCC)C(N)=O)(C3)NC1=O)CCCC=CC[C@]1(CCCN1C(C)=O)C(=O)N[C@@H](CC(=O)O)C(=O)N[C@@H](CC(C)(C)C)C(=O)N2 (stereo partly drawn) [I-2552, Ac-PL3-Asp-Npg-B5-Asp-3COOHF-Aib-Ala-Phe-nLeu-PyrS2-3Thi-BztA-NHEt]GlnR-NH2]		12 nM	10400 nM		
CC(=O)N1CCC[C@]12CC=CCCCC1(CCCC=CCCCOC(=O)N3CC[C@@](C(=O)N[C@@H](Cc4ccsc4)C(=O)N[C@@H](Cc4csc5ccccc45)C(=O)N[C@@H](CCC(N)=O)C(N)=O)(C3)NC(=O)[C@H](CC(N)=O)NC(=O)[C@H](Cc3ccccc3)NC(=O)[C@H](C)NC(=O)[C@H](C)NC(=O)[C@H](CNCC(=O)O)NC(=O)[C@H](CC(=O)O)NC1=O)NC(=O)[C@H](CC(C)(C)C)NC(=O)[C@H](CC(=O)O)NC2=O (stereo partly drawn) [I-1732, Ac-PL3-Asp-Npg-B5-Asp-GA-Ala-Ala-Phe-Asn-PyrS2-3Thi-BztA-Gln-NH2]		11 nM	> 20000 nM		
CC(=O)N1CCC[C@]12CC=CCCCC1(CCCC=CCCCOC(=O)N3CC[C@@](C(=O)N[C@@H](Cc4ccccc4Cl)C(=O)N[C@@H](Cc4csc5ccccc45)C(=O)N[C@@H](CCC(N)=O)C(N)=O)(C3)NC(=O)[C@H](CC(N)=O)NC(=O)[C@H](Cc3ccccc3)NC(=O)[C@H](C)NC(=O)[C@H](C)NC(=O)[C@H](CNCC(=O)O)NC(=O)[C@H](CC(=O)O)NC1=O)NC(=O)[C@H](CC(C)(C)C)NC(=O)[C@H](CC(=O)O)NC2=O (stereo partly drawn) [I-1572, Ac-PL3-Asp-Npg-B5-Asp-GA-Ala-Ala-Phe-Asn-PyrS2-2C1F-BztA-Gln-NH2]		20 nM	> 20000 nM		
CC(=O)N1CCC[C@]12CC=CCCCC1(CCCC=CCCCOC(=O)N3CC[C@@](C(=O)N[C@@H](Cc4ccsc4)C(=O)N[C@@H](Cc4csc5ccccc45)C(=O)N[C@@H](CCC(N)=O)C(N)=O)(C3)NC(=O)[C@H](CC(C)C)NC(=O)[C@H](Cc3ccccc3)NC(=O)[C@H](C)NC(=O)[C@H](C)NC(=O)[C@H](CCN(CC(=O)O)Cc3ccccc3)NC(=O)[C@H](CC(=O)O)NC1=O)NC(=O)[C@H](CC(C)(C)C)NC(=O)[C@H](CC(=O)O)NC2=O (stereo partly drawn) [I-1834, Ac-PL3-Asp-Npg-B5-Asp-[Bn]GAbu-Ala-Ala-Phe-Leu-PyrS2-3Thi-BztA-Gln-NH2]		35 nM	18800 nM		
CC(=O)N1CCC[C@]12CC=CCCCC1(CCCC=CCCCOC(=O)N3CC[C@@](C(=O)N[C@@H](Cc4ccccc4C(F)(F)F)C(=O)N[C@@H](Cc4csc5ccccc45)C(=O)N[C@@H](CCC(=O)N4CCOCC4)C(N)=O)(C3)NC(=O)[C@H](CCC(=O)N(C)C)NC(=O)[C@H](Cc3ccccc3)NC(=O)[C@H](C)NC(=O)[C@H](C)NC(=O)[C@H](Cc3cccc(C(=O)O)c3)NC(=O)[C@H](CC(=O)O)NC1=O)NC(=O)[C@H](CC(C)(C)C)NC(=O)[C@H](CC(=O)O)NC2=O (stereo partly drawn) [I-2545, Ac-PL3-Asp-Npg-B5-Asp-3COOHF-Ala-Ala-Phe-Me2Gln-PyrS2-2F3MeF-BztA-MorphGln-NH2]		16 nM	4000 nM		
CC(=O)N1CCC[C@]12CC=CCCCC1(CCCC=CCCCOC(=O)N3CC[C@@](C(=O)N[C@@H](Cc4ccsc4)C(=O)N[C@@H](Cc4csc5ccccc45)C(=O)N[C@@H](CCCCN)C(N)=O)(C3)NC(=O)[C@H](CC(N)=O)NC(=O)[C@H](Cc3ccccc3)NC(=O)[C@H](C)NC(=O)C(C)(C)NC(=O)[C@H]([C@@H](C)O)NC(=O)[C@H](CC(N)=O)NC1=O)NC(=O)[C@H](CC(C)(C)C)NC(=O)[C@H](CC(=O)O)NC2=O (stereo partly drawn) [I-2477, Ac-PL3-Asp-Npg-B5-Asn-Thr-Aib-Ala-Phe-Asn-PyrS2-3Thi-BztA-Lys-NH2]		165 nM	> 20000 nM		
CC(=O)N1CCC[C@]12CC=CCCCC1(CCCC=CCCCOC(=O)N3CC[C@@](C(=O)N[C@@H](Cc4ccsc4)C(=O)N[C@@H](Cc4csc5ccccc45)C(=O)N[C@@H](CCC(=O)N4CCC(N5CCCCC5)CC4)C(N)=O)(C3)NC(=O)[C@H](CC(C)C)NC(=O)[C@H](Cc3ccccc3)NC(=O)[C@H](C)NC(=O)[C@H](C)NC(=O)[C@H](CN(CC(=O)O)CC(F)(F)F)NC(=O)[C@H](CC(=O)O)NC1=O)NC(=O)[C@H](CC(C)(C)C)NC(=O)[C@H](CC(=O)O)NC2=O (stereo partly drawn) [I-1797, Ac-PL3-Asp-Npg-B5-Asp-TfeGA-Ala-Ala-Phe-Leu-PyrS2-3Thi-BztA-[4Pippip]GlnR-NH2]		10 nM	22500 nM		
CCCC[C@@H]1NC(=O)[C@H](CC(=O)O)NC(=O)[C@]2(CC=CCCCC3(CCCC=CCCCOC(=O)N4CC[C@@](C(=O)N[C@@H](Cc5ccsc5)C(=O)N[C@@H](Cc5csc6ccccc56)C(=O)N[C@@H](CCC(N)=O)C(N)=O)(C4)NC(=O)[C@H](CC(C)C)NC(=O)[C@H](Cc4ccccc4)NC(=O)[C@H](C)NC(=O)[C@H](C)NC(=O)[C@H](CN(CC(=O)O)CC(F)(F)F)NC(=O)[C@H](CC(=O)O)NC3=O)NC1=O)CCCN2C(C)=O (stereo partly drawn) [I-1777, Ac-PL3-Asp-nLeu-B5-Asp-TfeGA-Ala-Ala-Phe-Leu-PyrS2-3Thi-BztA-Gln-NH2]		8 nM	8700 nM		

Source: patent US20240116985A1, “STAPLED PEPTIDES AND METHODS THEREOF” (priority 2020, published 2024)
